“Also recorded” adds a separate entry of the source. Read-outs that look alike come from different tables or passages of the source.
Legend:
[1] = molecular target: GST-Mcl-1 / biotinylated Bim BH3 peptide (Homo sapiens, UniProt Q07820); assay: ELISA, disruption of Mcl-1 binding to Bim; conditions: for fold potency relative to 1 against Mcl-1/Bim: compared with 1
Protocol: (§1) ELISAs were performed using a similar procedure as previously described. Briefly, 40 nM of biotinylated Bim BH3 peptide (Biomatik, Wilmington, DE, USA) in SuperBlock blocking buffer (Thermo Scientific Pierce, Rockford, IL, USA) was incubated in high-binding capacity streptavidin-coated plates (Thermo Scientific Pierce, Rockford, IL, USA) for 2 h. Compounds were diluted in 120 µL of PBS containing 10 nM of GST-Mcl-1 or GST-Bcl-xL in 1.5-mL tubes for 15 min. Wells were washed with wash buffer (PBS containing 0.05% Tween-20) and then 100 µL of the compound/GST-protein mixture was transferred to the wells. The plates were incubated for 2 h, and then, the wells were washed with wash buffer. HRP-conjugated anti-GST antibody (Bethyl Laboratories, Montgomery, TX, USA) was diluted 1:2000 in SuperBlock, and 100 µL were transferred to each well. The plate was incubated for 1 h, and then, the wells were washed with wash buffer followed by PBS. One hundred microliters of SureBlue TMB Microwell Peroxidase Substrate (VWR International, Radnor, PA, USA) was added to each well, and the plates were developed for 5–10 min. One hundred microliters of 1 N HCl was added to each well to stop the reaction, and the absorbance was read at 450 nm using a µQuant plate reader (Bio-Tek Instruments, Winooski, VT, USA).

[2] = system: Mcl-1, Bim and caspase 3 in MDA-MB-468 cells; assay: Western blotting after treatment of intact human breast cancer cells; type: cell-based; conditions: 10 μM for 16 h
[3] = molecular target: GST-Bcl-xL / biotinylated Bim BH3 peptide (Homo sapiens, UniProt Q07817); assay: ELISA, disruption of Bcl-xL binding to Bim; conditions: for fold potency relative to 1 against Bcl-xL/Bim: compared with 1; for IC50: 10 nM GST-Bcl-xL, 40 nM biotinylated Bim BH3 peptide, read-out: IC50 against Bcl-xL/Bim binding
Chain of GST-Bcl-xL / biotinylated Bim BH3 peptide (Q07817 whole entry): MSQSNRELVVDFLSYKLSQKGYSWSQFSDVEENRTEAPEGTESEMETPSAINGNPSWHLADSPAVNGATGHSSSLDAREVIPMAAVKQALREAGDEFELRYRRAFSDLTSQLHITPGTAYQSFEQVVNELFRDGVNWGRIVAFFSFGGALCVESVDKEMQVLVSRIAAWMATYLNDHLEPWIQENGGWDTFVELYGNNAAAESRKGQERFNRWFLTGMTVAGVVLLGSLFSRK
Protocol: as §1

Chain of GST-Mcl-1 / biotinylated Bim BH3 peptide (Q07820 whole entry): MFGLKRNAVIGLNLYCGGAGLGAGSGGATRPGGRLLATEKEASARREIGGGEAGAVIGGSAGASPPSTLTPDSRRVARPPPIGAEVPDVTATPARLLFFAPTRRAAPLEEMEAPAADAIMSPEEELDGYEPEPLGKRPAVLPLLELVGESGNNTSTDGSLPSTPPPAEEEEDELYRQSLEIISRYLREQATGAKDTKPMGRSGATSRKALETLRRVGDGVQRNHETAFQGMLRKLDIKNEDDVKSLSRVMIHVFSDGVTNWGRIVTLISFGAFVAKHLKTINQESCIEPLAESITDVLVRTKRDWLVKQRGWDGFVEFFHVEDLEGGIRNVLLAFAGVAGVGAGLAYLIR

Compound | cleavage of caspase 3 [2] | levels of Mcl-1 and Bim [2] | activity against Mcl-1/Bim (in words) ([1]; ELISA) | other results
O=C(c1ccccc1O)c1[nH]c(Cl)c(Cl)c1-n1c(C(=O)c2ccccc2O)cc(Cl)c1Cl (racemic) [Compound 1, (±)-marinopyrrole A, reference compound] | cleave caspase 3 | able to decrease | – | IC50 [1]: 8.9 µM
O=C1c2ccc(OS(=O)(=O)C(F)(F)F)cc2Oc2c(Cl)cc(C(=O)c3ccc(OS(=O)(=O)C(F)(F)F)cc3O)n2-c2c1[nH]c(Cl)c2Cl [Compound 3, 3-Hydroxy-4-(2,3,7-trichloro-13-oxo-10-(((trifluoromethyl)sulfonyl)oxy)-1,13 dihydrobenzo[g]di-pyrrolo[2,1-b:3′,2′-d][1,3]oxazocine-5-carbonyl)phenyl trifluoromethanesulfonate] | – | – | – | fold potency relative to 1 against Mcl-1/Bim ([1]; ELISA): six; fold potency relative to 1 against Bcl-xL/Bim [3]: seven-fold higher potency
COC(=O)c1ccc(C(=O)c2cc(Cl)c3n2-c2c([nH]c(Cl)c2Cl)C(=O)c2ccc(C(=O)OC)cc2O3)c(O)c1 [Compound 4, Methyl-2,3,7-trichloro-5-(2-hydroxy-4-(methoxycarbonyl)benzoyl)-13-oxo-1,13-dihydrobenzo[g]-dipyrrolo[2,1-b:3′,2′-d][1,3]oxazocine-10-carboxylate] | – | – | – | fold potency relative to 1 against Mcl-1/Bim ([1]; ELISA): two-fold more potent; fold potency relative to 1 against Bcl-xL/Bim [3]: seven-fold more potent
COC(=O)c1ccc(C(=O)c2[nH]c(Cl)c(Cl)c2-n2c(C(=O)c3ccc(C(=O)OC)cc3O)cc(Cl)c2Cl)c(O)c1 [Compound 4a, dimethyl-4,4′-(4,4′,5,5′-tetrachloro-1′H-[1,3′-bipyrrole]-2,2′-dicarbonyl)bis(3-hydroxybenzoate)] | cleavage of caspase 3 | significant decrease | showed activity | –
CCOP(=O)(OCC)c1ccc(C(=O)c2cc(Cl)c3n2-c2c([nH]c(Cl)c2Cl)C(=O)c2ccc(P(=O)(OCC)OCC)cc2O3)c(O)c1 [Compound 5, 3-Hydroxy-4-(2,3,7-trichloro-13-oxo-10-(diethylphosphonyl)-1,13-dihydrobenzo[g]dipyrrolo[2,1-b:3′,2′-d][1,3]oxazocine-5-carbonyl)diethyl phosphonate] | – | – | – | IC50 ([1]; ELISA, 10 nM GST-Mcl-1, 40 nM biotinylated Bim BH3 peptide, read-out: IC50 to disrupt the binding of Mcl-1 to Bim): > 100 µM; IC50 [3]: > 100 µM
CCOP(=O)(OCC)c1ccc(C(=O)c2[nH]c(Cl)c(Cl)c2-n2c(C(=O)c3ccc(P(=O)(OCC)OCC)cc3O)cc(Cl)c2Cl)c(O)c1 [Compound 5a, tetraethyl((4,4′,5,5′-tetrachloro-1′H-[1,3′-bipyrrole]-2,2′-dicarbonyl)bis(3-hydroxy-4,1-phenylene))bis(phosphonate)] | little effect | little effect | showed activity | IC50 [3]: > 100 µM
O=C(O)c1ccc(C(=O)c2[nH]c(Cl)c(Cl)c2-n2c(C(=O)c3ccc(C(=O)O)cc3O)cc(Cl)c2Cl)c(O)c1 [Compound 7a, 4,4′-(4,4′,5,5′-Tetrachloro-1′H-[1,3′-bipyrrole]-2,2′-dicarbonyl)bis(3-hydroxybenzoic acid)] | little caspase 3 cleavage | did not decrease | lower activity than 1; also recorded: less active | activity against Bcl-xL/Bim (in words) [3]: little activity; also recorded: less active; melting point: 190.5 to 192 °C
O=C(c1ccc(P(=O)(O)O)cc1O)c1[nH]c(Cl)c(Cl)c1-n1c(C(=O)c2ccc(P(=O)(O)O)cc2O)cc(Cl)c1Cl [Compound 8a, ((4,4′,5,5′-Tetrachloro-1′H-[1,3′-bipyrrole]-2,2′-dicarbonyl)bis(3-hydroxy-4,1-phenylene))diphosphonic acid] | little effect | little effect | slightly less potent than 1; also recorded: less active | activity against Bcl-xL/Bim (in words) [3]: less active

Source: article PMC3967213, “Cyclic Marinopyrrole Derivatives as Disruptors of Mcl-1 and Bcl-xL Binding to Bim” (Marine Drugs, 2014)
